Measurements from patent US20240238363A1 (priority 2020, published 2024).

What was measured:
CXCR4 [1] = molecular target: CXCR4 (Mus musculus, UniProt P70658); conditions: FIG. 2A; CXCR4 tropic gp120; cultured mouse hippocampal neurons
Protocol: (§1) Aβd/t was isolated from medium of cultured 7PA2 cells, a CHO cell line expressing a form of human APP found in Familial AD. The amount of ABd/t is quantified by Western blot with standards of synthetic Aβ monomer. Neuronal cultures, fixation, permeabilization, blocking and immunostaining is performed starting with E16.5 mouse hippocampal neurons by common methods in broad use.
(§2) Images of fixed neurons immunostained for cofilin, growth cones and nuclei captured across the entire coverslip are exported to ImageJ. Macro functions are applied to set local threshold and shape/size segmentation for both the cofilin and growth cone antibodies. Cofilin stained material that is not within neurites is eliminated. Results are reported as rods/nucleus, number of rods per area, rods as percent of total area, or, if NeuN stained or identified morphologically, rods per neuron.

CXCR4 [2] = conditions: in vivo; cited from earlier work
[3] = test system: dendritic spine morphology, dendritic arborization and functional deficits; conditions: animal model of HIV cognitive decline; cited from earlier work
[4] = test system: cognitive deficits in HAND; conditions: phase 2 human trials and brain scans; cited from earlier work
[5] = test system: growth cones in pure cultures of mouse hippocampal neurons; conditions: FIG. 5; Aβ trimer-treated neurons, 2G13 antibody stain
Protocol: as §1, §2
(§3) Amyloid beta (Aβ) trimer was added to pure cultures of mouse hippocampal neurons, devoid of immune cells, microglia, and their secreted inflammatory mediators to evaluate actin dynamics and cofilin-rod formation. […] The relevance is that rod pathology leads to synapse loss in people that correlates with dementia.

[6] = test system: cofilin rods in cultured mouse hippocampal neurons; type: cell-based
Protocol: as §1, §2, §3

CCR5 [7] = molecular target: T1, CCR5 (Mus musculus, UniProt P51682); conditions: FIG. 2A; CCR5 tropic gp120; cultured mouse hippocampal neurons
T1 sequence (P51682 whole entry): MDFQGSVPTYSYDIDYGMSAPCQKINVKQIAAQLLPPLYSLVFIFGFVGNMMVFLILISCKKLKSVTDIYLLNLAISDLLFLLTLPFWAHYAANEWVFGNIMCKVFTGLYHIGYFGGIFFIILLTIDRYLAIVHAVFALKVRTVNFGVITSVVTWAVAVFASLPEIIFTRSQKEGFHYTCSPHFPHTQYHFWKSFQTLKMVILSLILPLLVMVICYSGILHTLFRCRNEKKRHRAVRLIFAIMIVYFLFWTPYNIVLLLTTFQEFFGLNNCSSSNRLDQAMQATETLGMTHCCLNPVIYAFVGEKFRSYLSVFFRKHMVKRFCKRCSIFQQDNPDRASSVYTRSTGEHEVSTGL
Protocol: as §1, §2

CCR5 [8] = molecular target: T1, CCR5; conditions: pharmacologic blockade of CCR5; cited from earlier work

Chain of CXCR4 (Mus musculus, UniProt P70658) (P70658 whole entry): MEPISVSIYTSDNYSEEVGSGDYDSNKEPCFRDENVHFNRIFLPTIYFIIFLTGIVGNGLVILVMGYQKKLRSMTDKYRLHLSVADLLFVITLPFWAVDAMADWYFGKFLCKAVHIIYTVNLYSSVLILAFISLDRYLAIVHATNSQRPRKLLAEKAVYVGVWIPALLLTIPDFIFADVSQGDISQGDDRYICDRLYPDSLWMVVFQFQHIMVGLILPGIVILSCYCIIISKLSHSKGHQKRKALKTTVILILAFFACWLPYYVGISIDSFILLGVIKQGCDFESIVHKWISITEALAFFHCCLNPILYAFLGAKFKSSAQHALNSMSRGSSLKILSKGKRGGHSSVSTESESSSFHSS

Compound: c1cc(CN2CCCNCCNCCCNCC2)ccc1CN1CCCNCCNCCCNCC1 [AMD3100]
- inhibition of gp120-induced cofilin-rod formation through CXCR4 (CXCR4 [1]): inhibited
- recovery after traumatic brain injury (CXCR4 [2]): improved recovery

Compound: Dala1-peptide T-amide [DAPTA]
- dendritic spine morphology, dendritic arborization and functional deficits [3]: protection of dendritic spine morphology, expansion of dendritic arborization and reversal of functional deficits
- cognitive deficits in HAND [4]: able to reverse cognitive deficits

Compound: all-D-TTNYT [RAP-103]
- growth cone formation [5]: promote growth cone formation
- area within the neurons occupied by cofilin-rods, caused by amyloid beta (Aβ) [6]: reducing
- area within the neurons occupied by cofilin-rods, caused by pre-formed fibrils (PPF) of alpha-synuclein [6]: reducing
- block Aβ-induced formation of cofilin rods (percent of neurons expressing cofilin-rods) [6]: block
- block TNF-induced formation of cofilin rods [6]: block
- cofilin rod-like structures at the ends of dendrites [6]: eliminated

Compound: maraviroc
- inhibition of gp120-induced cofilin-rod formation through CCR5 (CCR5 [7]): inhibited
- dendritic spines and neurite cortical projections after stroke and traumatic brain injury (CCR5 [8]): preservation of dendritic spines and new patterns of neurite cortical projections
- early pathology of synapse loss (cofilin-rod formation) induced by beta-amyloid (Aβ-trimer/dimer) ([6]; FIG. 2B, blocking neuronal CCR5): can be reversed

Compound: all-D-ASTTTNYT [RAP-310]
- block Aβ-induced formation of cofilin rods (percent of neurons expressing cofilin-rods) [6]: block
- block TNF-induced formation of cofilin rods [6]: block
